Assay results: US20080248134A1, “Oral compositions, use and combinations of N-[2-(dimethylamino)ethyl]-2,6 dimethyl-1-oxo-1,2-dihydrobenzo[b]-1,6-naphthyridine-4-carboxamide and closely related analogues thereof” (Auckland Uniservices Limited, priority 2005, published 2008)

Experiments:
JLD = assay: In vitro cell survival assay; assay type: cell-based, human; conditions: resistant line JLD, 0.4 μM, one hour exposure
Method: (§1) Two HCT116 human colon carcinoma lines, one with TP53 wild type status and one with TP53 mutant status, were exposed to the compound of Formula II for 6 hours. The cells were washed free of drug and surviving cells were measured by clonogenic assay. The concentration for maximal reduction of cell survival was 1% for p53 wild-type cells and 5% for p53 mutant cells. The cytotoxicity of the compound of the present invention was also tested in three Jurkat leukaemia lines, two of which, JLA and JLD, are resistant to topoisomerase inhibitors because of low cellular levels of topoisomerase II.

JLA = assay: In vitro cell survival assay; assay type: cell-based, human; conditions: resistant line JLA, 0.4 μM, one hour exposure
Method: as §1

wild-type Jurkat line = assay: In vitro cell survival assay; assay type: cell-based, human; conditions: 0.4 μM, one hour exposure
Method: as §1

[1] = tested on: NZM6 melanoma line (wild-type p53); assay: Induction of cell cycle arrest, flow cytometry; assay type: cell-based, human; conditions: NZM6, 0.3 μM for one hour, grown up to 9 days
Method: (§2) Flow cytometry was used to determine the magnitude and duration of cell cycle arrest induced by the compound of the present invention. Two human melanoma lines were used in a preliminary study, one having wild-type p53 status (NZM6) and one having mutant p53 status (NZM4). Cells were exposed to the compound of Formula II for one hour at a concentration of 0.3 μM, washed free of drug and grown for up to a further 9 days.

[2] = tested on: NZM4 melanoma line (mutant p53); assay: Induction of cell cycle arrest, flow cytometry; assay type: cell-based, human; conditions: NZM4, 0.3 μM for one hour, grown up to 9 days
Method: as §2

NZM4 = assay: Human tumour xenograft; assay type: in vivo; set-up: key to Activity: Active: NCI Criterion for activity tumour volume T/C ≦ 40%; Inactive: NCI Criterion for activity tumour volume T/C ≦ 40%; conditions: NZM4, Melanoma
Method: The compound of Formula II was evaluated in a number of xenografts using cell lines derived from cervical, endometrial, lung and colon carcinomas, leukaemia and melanoma (Table 3). These studies indicate that the compound according to the present invention has significant activity in xenografts.

[3] = Plasma and tissue pharmacokinetics; assay type: in vivo, mice
Method: Plasma and tissue pharmacokinetics of the compound of Formula II, were compared following intraperitoneal administration at a dose of 8.9 mg/kg body weight. Mice were terminally anaesthetised at various times up to 75 hours after drug administration and tissue and blood was taken for preparation of samples. Plasma and tissue concentrations of the compound of Formula II were measured by high performance liquid chromatography-mass spectrophometry. The results are shown in FIG. 8, the vertical bars showing the standard deviation of the mean values from three mice per time point. The concentration of drug in plasma is very low on this scale (<100 nmol/kg), implying a high ratio of the concentration of cell-associated drug to that of external drug
Plasma and tissue pharmacokinetics, were further investigated following intraperitoneal administration of the compound of Formula II at a dose of 8.9 mg/kg. Mice were terminally anaesthetised at various times up to 75 hours after drug administration and tissue and blood was taken for preparation of samples. Plasma and tissue concentrations of the compound of Formula II were measured by high performance liquid chromatography-mass spectrophometry. The results are shown in FIG. 9, the vertical bars showing the standard deviation of the mean values from three mice per time point. The concentration differential (ie the slope of each plot) indicates the half life of the compound of Formula II in each tissue type and plasma. The half life of the compound of Formula II in various tissue types including liver, kidney, brain, heart and plasma, calculated from points on the concentration time curve, is approximately three hours. The half life of the compound of Formula II in tumour tissue, calculated from points on the concentration time curve, is approximately 9 hours. This is approximately a three-fold increase in the concentration differential in tumour tissue to non-tumour tissue and plasma concentration of Formula II. This effectively leads to an accumulation of the compound of Formula II in tumour tissue relative to other tissue.
The plasma and tissue pharmacokinetics of a compound of Formula II, were also compared with several well known cancer therapies as shown in FIG. 10. The analytical methods used to obtain data for other therapies varies and was taken from the literature. The AUC (area under the concentration-time curve) values of the compound of Formula II show approximately a 6-7 fold increase in concentration of Formula II in tumour tissue over liver tissue. The AUC values in plasma are negligible. A longer half life (higher concentration differential) in a particular tissue, leads to a larger AUC value (area under the concentration versus time curve). The AUC values provide an indication of the amount of each compound accumulated in a particular tissue or plasma over time.
The ability of different anticancer drugs to be retained selectively in tumour tissue can also be conveniently compared as the ratio of AUC values for a normal tissue versus a tumour tissue. […] Cancer Chemother Pharmacol. 1996; 38: 417-24), amsacrine and asulacrine (Kestell P, Paxton J W, Evans P C, Young D, Jurlina J L, Robertson I G C, Baguley B C. Disposition of amsacrine and its analogue 9-((2-methoxy-4-[(methylsulfonyl)-amino]phenyl)amino)-N,5-dimethyl-4-acridinecarboxamide (CI-921) in plasma, liver, and Lewis lung tumors in mice. Cancer Res 1990; 50: 503-508) and DACA (Kestell P, Dunlop I, McCrystal M R, Evans B D, Paxton J W, Gamage R S K A, Baguley B C. Plasma pharmacokinetics of DACA (N-[2-(dimethylamino)-ethyl]-acridine-4-carboxamide) in a phase I trial. Cancer Chemother Pharmacol 1999; 44: 45-50). Similar analytical methods, employing high performance liquid chromatography, were used. […]

Lewis lung = assay: Murine Lewis lung tumour growth delay; assay type: in vivo; conditions: intraperitoneal dose of 8.9 mg/kg
Method: In addition, the compound of Formula II, by way of an intraperitoneal dose of 8.9 mg/kg, induced a growth delay of 8.5 days in a murine tumour (Lewis lung) that is also used extensively in drug development programmes.

colon 38 tumours = assay: Response of colon 38 tumours in immunocompetent and Rag1 immunodeficient mice; assay type: in vivo
Method: A single dose of 5.9 mg/kg of the compound of Formula II was administered intraperitoneally to immunocompetent mice in A, while a 5.9 mg/kg dose on days 0 and 7 was administered to Rag 1 immunodeficient mice (see FIG. 13). […] Initial tumour response (apoptosis induction) is similar in normal and immunosuppressed mice. The compound of Formula II appears to induce a change in tumour cells that activates a T-cell mediated response leading to tumour regression. This dependence on T-cells for response might explain why only moderate activity of the compound of Formula II is found in xenografts.

[4] = intraperitoneal 8.9 mg/kg, mice

Question: Which results are given for `Cc1cccc2cc3c(=O)n(C)cc(C(=O)NCCN(C)C)c3nc12` [Formula II, N-[2-(dimethylamino)ethyl]-2,6 dimethyl-1-oxo-1,2-dihydrobenzo[b]-1,6-naphthyridine-4-carboxamide]?
Answer: survival (JLD): 100%; survival (JLA): 100%; survival (wild-type Jurkat line): 28%; cell cycle arrest [1]: extended arrest of NZM6 cells in both G1- and G2-phase; cell cycle arrest [2]: minimal effect in G1-phase but an extended effect in G2-phase; Activity (NZM4): Inactive; % control (NZM4; P53 Mutant, tumour volume T/C): 90%; ratio of AUC values (tumour/liver) ([3]; compared with doxorubicin, amsacrine, asulacrine and DACA): clearly superior; half life in liver, kidney, brain, heart and plasma [3, 4]: approximately three; increase in the concentration differential in tumour tissue to non-tumour tissue and plasma [3, 4]: approximately three; concentration of drug in plasma ([3]; intraperitoneal 8.9 mg/kg, mice, up to 75 hours): < 100 nmol/kg; AUC: increase in concentration in tumour tissue over liver tissue ([3]; mice): 6-7 fold; half-life ([3]; mouse, ip, colon 38 tumour tissue, intraperitoneal 8.9 mg/kg, mice): ~9 h; AUC values in plasma ([3]; relative to tissue AUC, mice): negligible; growth delay (Lewis lung): 8.5 days; activity against colon 38 tumours (colon 38 tumours; Rag1 immunodeficient mice, 5.9 mg/kg on days 0 and 7): attenuated; activity against colon 38 tumours (colon 38 tumours; immunocompetent mice, single dose of 5.9 mg/kg intraperitoneally): active
